Data published in US9040563B2, “Dual inhibitors of farnesyltransferase and geranylgeranyltransferase I” (H. Lee Moffitt Cancer Center and Research Institute, Inc., priority 2010, dated 2015).

Experiments:
[1] = test system: Rap-1A geranylgeranylation; test: Western blot of Rap-1A geranylgeranylation/processing (antibody to un-geranylgeranylated Rap-1A) in treated cells; assay type: cell-based; conditions: MiaPaca, MDA-MB-468 and MDA-MB-231 human cancer cells; FIG. 13
Procedure: The ability of FGTI-2734 to inhibit HDJ-2 farnesylation and Rap-1A geranylgeranylation in human cancer cells was determined next. To this end, the MiaPaca pancreatic cancer cell line and 2 breast cancer cell lines (MDA-MB-468 and MDA-MB-231) were treated with various concentration of the dual inhibitor FGTI-2734, the GGT-1 inhibitor GGTI-2418 or the FT inhibitor FTI-2153 and processed for Western blotting.
Testing has shown that the dual farnesyltransferase and geranygeranyltransferase-I inhibitors are effective on pancreatic tumors (90% of all cases), colonic tumors (30% of all cases), lung tumors (30% of all cases), and breast tumors (10% of all cases). NIH-3T3 cells that overexpress oncogenic mutant K-Ras, seen in FIG. 14, and MDA-MB-231 breast cancer cells with a naturally occurring K-Ras mutation, seen in FIG. 15, were treated with indicated concentrations of FGTI-2734, GGTI-2417 or FTI-2153. FGTI-2734 but not FTI-2153 or GGTI-2417 inhibited K-Ras prenylation. As expected, GGTI-2417 inhibited the processing of Rap1 but not HDJ-2 whereas FTI-2153 inhibited the processing of HDJ-2 but not Rap1.
Mammalian target of rapamycin (mTOR) is a serine/threonine phosphatidylinositol 3-kinase-related kinase responsible for cell growth, proliferation, cell survival, protein synthesis, and transcription. Alteration of the mTOR pathway, either through activation of oncogenes or inactivation of tumor suppressors, disrupts a signaling equilibrium and causes malignant transformation. Studies have shown that phosphorylated S6 (pS6) is related to mTOR pathway alterations, and is useful in determining PI3K-based cancer therapies (Aziz, et al. Phosphatidylinositol-3-Kinase as a Therapeutic Target in Melanoma. Clin Cancer Res. 2009, 15; 3029-3036). Two breast adenocarcinoma and a pancreatic carcinoma cell line were treated with indicated concentrations of FGTI-2734, GGTI-2417 or FTI-2153. Protein extracts were run on a Western Blot using antibody against pS6 (ser240/244) (Cell Signaling Technology, Inc., Danvers, Mass.). […]

[2] = test system: mTOR signaling pathway (pS6); test: Western blot of pS6 (ser240/244), mTOR pathway signaling; assay type: cell-based, human; conditions: two breast adenocarcinoma and a pancreatic carcinoma cell line; FIG. 16
Description: (§1) Mammalian target of rapamycin (mTOR) is a serine/threonine phosphatidylinositol 3-kinase-related kinase responsible for cell growth, proliferation, cell survival, protein synthesis, and transcription. Alteration of the mTOR pathway, either through activation of oncogenes or inactivation of tumor suppressors, disrupts a signaling equilibrium and causes malignant transformation. Studies have shown that phosphorylated S6 (pS6) is related to mTOR pathway alterations, and is useful in determining PI3K-based cancer therapies (Aziz, et al. Phosphatidylinositol-3-Kinase as a Therapeutic Target in Melanoma. Clin Cancer Res. 2009, 15; 3029-3036). Two breast adenocarcinoma and a pancreatic carcinoma cell line were treated with indicated concentrations of FGTI-2734, GGTI-2417 or FTI-2153. Protein extracts were run on a Western Blot using antibody against pS6 (ser240/244) (Cell Signaling Technology, Inc., Danvers, Mass.). […] Antibodies used were HDJ-2 (Lab Vision Corporation, Fremont, Calif.), Rapt (Santa Cruz Biotechnology, Santa Cruz, Calif.), K-Ras (EMD4 Biosciences (Calbiochem), Gibbstown, N.J.), P27 (BD Biosciences, San Jose, Calif.), Actin (Sigma-Aldrich, St. Louis, Mo.), Survivin (Santa Cruz Biotechnology, Santa Cruz, Calif.), and PARP (Roche, Indianapolis, Ind.).

NCI-H460 = test: MTT proliferation/viability assay; assay type: cell-based; conditions: Homo sapiens, NCI-H460, lung
Procedure: (§2) To determine if FGTI-2734 is more efficacious than FT or GGT-1 inhibitors, 10 human cancer pancreatic cell lines, 2 human breast cancer cell lines, 2 human lung cancer cell lines and one human prostate cancer cell line were treated with these inhibitors and determined their effects on the proliferation of these cells by MTT assay.

MDA-MB-231 = test: MTT proliferation/viability assay; assay type: cell-based; conditions: Homo sapiens, MDA-MB-231, MDA-MB-231, breast
Procedure: as §2

survivin = test: Western blot of survivin and PARP (apoptosis); assay type: cell-based; conditions: human cancer cells
Description: as §1

p27Kip1 = test: Western blot of p27Kip1 protein levels; assay type: cell-based; conditions: human cancer cells; FIG. 17
Description: as §1

MiaPaca = test: MTT proliferation/viability assay; assay type: cell-based, human; conditions: Homo sapiens, MIA PaCa-2, pancreas
Procedure: as §2

MCF-7 = test: MTT proliferation/viability assay; assay type: cell-based, human; conditions: Homo sapiens, MCF7, MCF-7, breast
Procedure: as §2

BxPC3 = test: MTT proliferation/viability assay; assay type: cell-based, human
Procedure: as §2

HPNE = test: MTT proliferation/viability assay; assay type: cell-based, human; conditions: Homo sapiens, pancreas
Procedure: as §2

Capan-2 = test: MTT proliferation/viability assay; assay type: cell-based, human
Procedure: as §2

SW1990 = test: MTT proliferation/viability assay; assay type: cell-based, human
Procedure: as §2

A549 = test: MTT proliferation/viability assay; assay type: cell-based, human; conditions: Homo sapiens, A549, lung
Procedure: as §2

HPDE-C7-Kras = test: MTT proliferation/viability assay; assay type: cell-based, human; conditions: pancreas
Procedure: as §2

Panc-1 = test: MTT proliferation/viability assay; assay type: cell-based, human; conditions: Homo sapiens, Panc-1, pancreas
Procedure: as §2

HPNE-K-ras = test: MTT proliferation/viability assay; assay type: cell-based, human; conditions: Homo sapiens, pancreas
Procedure: as §2

DU-145 = test: MTT proliferation/viability assay; assay type: cell-based, human; conditions: Homo sapiens, DU-145, DU-145, prostate
Procedure: as §2

HPDE-C7 = test: MTT proliferation/viability assay; assay type: cell-based, human; conditions: Homo sapiens, HPDE-C7, pancreas
Procedure: as §2

ASPC-1 = test: MTT proliferation/viability assay; assay type: cell-based, human
Procedure: as §2

Cn1cncc1CN(CCN(CC1CCCCC1)S(=O)(=O)c1ccccn1)c1ccc(C#N)cc1F [21b, N-(2-((4-cyano-2-fluorophenyl)((1-methyl-1H-imidazol-5-yl)methyl)amino)ethyl)-N-(cyclohexylmethyl)pyridine-2-sulfonamide]
inhibition of Rap-1A geranylgeranylation [1]: inhibited
mTOR pathway signaling, levels of pS6 [2]: reducing the levels of pS6
IC50 (NCI-H460): 7.19 ± 1.18 µM
IC50 (MDA-MB-231): 12.2 ± 0.97 µM
survivin protein levels (survivin; FIG. 18): reduces
apoptosis (survivin; FIG. 18 (PARP)): induces apoptosis
p27Kip1 protein levels (p27Kip1): induces
IC50 (MiaPaca): 2.65 ± 0.3 µM
IC50 (MCF-7): 4.42 ± 0.92 µM
IC50 (BxPC3; BxPC3, pancreas, listed as FGTI-2734): 17.8 µM
IC50 (BxPC3; Homo sapiens, BXPC-3, BxPC3, pancreas): 17.2 µM
IC50 (HPNE): 13.5 ± 1.72 µM
IC50 (Capan-2; Capan-2, pancreas, listed as FGTI-2734): 30 µM
IC50 (Capan-2; Homo sapiens, Capan-2, Capan-2, pancreas): 24 µM
IC50 (SW1990; Homo sapiens, SW1990, SW1990, pancreas): 26.3 µM
IC50 (SW1990; SW1990, pancreas, listed as FGTI-2734): 24.2 µM
IC50 (A549): 13.2 ± 3.64 µM
IC50 (HPDE-C7-Kras; Homo sapiens): 6.6 µM
IC50 (HPDE-C7-Kras; listed as FGTI-2734): 8.7 µM
IC50 (Panc-1): 20.5 ± 3.18 µM
IC50 (HPNE-K-ras): 14.7 ± 0.89 µM
IC50 (DU-145): 11.2 ± 6.09 µM
IC50 (HPDE-C7): 7.5 µM
IC50 (ASPC-1; ASPC-1, pancreas, listed as FGTI-2734): 12.6 µM
IC50 (ASPC-1; Homo sapiens, ASPC1, ASPC-1, pancreas): 11.2 µM
